Data taken from patent publication US20250188040A1, “PHARMACEUTICAL COMPOSITIONS COMPRISING WRN HELICASE INHIBITORS” (Vividion Therapeutics, Inc., priority 2022, published 2025).
Where “and” joins values, the source holds several entries; their conditions need not be identical. Equal values may be shown once. Read-outs that look alike come from different tables or passages of the source.

Key:
SW480 cells = experiment: Cell growth assay (CellTiter-Glo 2.0), SW480 MSS cell line; conditions: read-out: Cell Growth Inhibition GI50 SW480
Procedure: (§1) The effects of compound on cellular viability were determined using the CellTiter-Glo® 2.0 Luminescent Cell Viability Assay (Promega, Madison, WI).
(§2) SW480 cells were seeded at 1,000 cells per well in Eagle's Minimum Essential Medium (EMEM) with 10% FBS. Both cell lines were seeded in a volume of 50 μL medium per well. […] The concentration range was adjusted as needed for compounds of different potencies. The cells treated with compounds were incubated for 5 days at 37° C. in 5% CO2. […] The plate was then read on a Clariostar plate reader (BMG Labtech, Cary, NC) in luminescence mode. The previously measured baseline cell viability was subtracted from the luminescence value of each well, and cell viability (% of DMSO) was plotted as a function of log compound concentration. The EC50 was then calculated for each compound using Dotmatics Software (San Diego, CA).

HCT 116 cells = experiment: Cell growth assay (CellTiter-Glo 2.0), HCT 116 MSI-H cell line; conditions: read-out: Cell Growth Inhibition GI50 HCT-116
Procedure: as §1, §2

WRN C727 = molecular target: T1, WRN C727 (Homo sapiens, UniProt Q14191); experiment: Target engagement, in vitro (lysate), OCI-AML2; format: binding; conditions: read-out: OCI-AML2 WRN C727 TE50 in vitro (lysate)
T1 construct: endogenous in cells; host or cells: OCI-AML2
T1 sequence (Q14191 whole entry): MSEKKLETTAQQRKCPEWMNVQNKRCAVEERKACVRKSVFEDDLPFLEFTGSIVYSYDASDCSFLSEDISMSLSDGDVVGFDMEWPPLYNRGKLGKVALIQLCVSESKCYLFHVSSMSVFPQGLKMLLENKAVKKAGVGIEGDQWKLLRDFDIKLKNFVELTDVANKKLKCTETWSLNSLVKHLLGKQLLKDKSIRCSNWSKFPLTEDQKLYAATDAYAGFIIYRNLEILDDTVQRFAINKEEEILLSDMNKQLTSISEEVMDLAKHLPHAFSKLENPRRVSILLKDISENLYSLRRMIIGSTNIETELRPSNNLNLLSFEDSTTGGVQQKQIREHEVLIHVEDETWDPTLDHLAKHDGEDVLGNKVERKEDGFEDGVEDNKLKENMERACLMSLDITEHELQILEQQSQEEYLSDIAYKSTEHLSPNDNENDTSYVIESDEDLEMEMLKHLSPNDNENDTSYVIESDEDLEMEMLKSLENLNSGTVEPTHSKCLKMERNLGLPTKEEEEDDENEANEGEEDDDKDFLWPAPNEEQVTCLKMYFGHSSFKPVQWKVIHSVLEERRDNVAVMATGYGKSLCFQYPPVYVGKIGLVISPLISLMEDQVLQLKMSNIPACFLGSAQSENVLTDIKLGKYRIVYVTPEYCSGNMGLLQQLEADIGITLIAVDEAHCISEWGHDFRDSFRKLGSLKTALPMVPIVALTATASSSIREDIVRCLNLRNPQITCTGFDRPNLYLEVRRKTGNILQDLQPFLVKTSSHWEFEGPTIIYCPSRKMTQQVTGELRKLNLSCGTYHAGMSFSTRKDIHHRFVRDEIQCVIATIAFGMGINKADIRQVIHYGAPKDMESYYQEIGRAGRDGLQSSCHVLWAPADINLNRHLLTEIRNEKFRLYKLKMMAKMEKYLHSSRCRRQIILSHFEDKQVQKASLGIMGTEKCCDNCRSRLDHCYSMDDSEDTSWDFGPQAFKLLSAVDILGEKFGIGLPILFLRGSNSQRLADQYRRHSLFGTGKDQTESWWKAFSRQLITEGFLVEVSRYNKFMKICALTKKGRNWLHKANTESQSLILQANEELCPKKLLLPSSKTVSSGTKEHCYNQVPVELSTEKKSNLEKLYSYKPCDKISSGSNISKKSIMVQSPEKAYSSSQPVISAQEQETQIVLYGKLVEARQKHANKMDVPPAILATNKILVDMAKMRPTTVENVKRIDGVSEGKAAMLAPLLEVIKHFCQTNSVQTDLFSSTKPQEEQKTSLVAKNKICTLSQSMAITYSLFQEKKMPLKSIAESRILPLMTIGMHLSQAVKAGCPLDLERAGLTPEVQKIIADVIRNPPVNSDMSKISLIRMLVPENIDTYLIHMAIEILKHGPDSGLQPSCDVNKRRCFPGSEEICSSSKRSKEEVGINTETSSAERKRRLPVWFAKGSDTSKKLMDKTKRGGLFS
Procedure: Cells or cell lysates were treated with a dose response of compound followed by probe treatment, which labels solvent exposed cysteines. Proteins were enzymatically digested with trypsin and probe-labelled peptides were enriched with streptavidin. Isolated peptides were then separated using reversed-phase liquid chromatography on a C18 column (Dionex Ultimated 3000 nano-LC, Thermo). Peptides were analyzed by parallel reaction monitoring mass spectrometry (Exploris 120, Thermo).
Target engagement (%) is calculated relative to DMSO treated control samples.

[1] = molecular target: hWRN(519-1227)_C-H3CV-GFP-10His (Homo sapiens, UniProt Q14191); experiment: Helicase Assay for WRN Inhibition (ATP-dependent, fluorescence based)
hWRN(519-1227)_C-H3CV-GFP-10His, sequence (Q14191 519-1227): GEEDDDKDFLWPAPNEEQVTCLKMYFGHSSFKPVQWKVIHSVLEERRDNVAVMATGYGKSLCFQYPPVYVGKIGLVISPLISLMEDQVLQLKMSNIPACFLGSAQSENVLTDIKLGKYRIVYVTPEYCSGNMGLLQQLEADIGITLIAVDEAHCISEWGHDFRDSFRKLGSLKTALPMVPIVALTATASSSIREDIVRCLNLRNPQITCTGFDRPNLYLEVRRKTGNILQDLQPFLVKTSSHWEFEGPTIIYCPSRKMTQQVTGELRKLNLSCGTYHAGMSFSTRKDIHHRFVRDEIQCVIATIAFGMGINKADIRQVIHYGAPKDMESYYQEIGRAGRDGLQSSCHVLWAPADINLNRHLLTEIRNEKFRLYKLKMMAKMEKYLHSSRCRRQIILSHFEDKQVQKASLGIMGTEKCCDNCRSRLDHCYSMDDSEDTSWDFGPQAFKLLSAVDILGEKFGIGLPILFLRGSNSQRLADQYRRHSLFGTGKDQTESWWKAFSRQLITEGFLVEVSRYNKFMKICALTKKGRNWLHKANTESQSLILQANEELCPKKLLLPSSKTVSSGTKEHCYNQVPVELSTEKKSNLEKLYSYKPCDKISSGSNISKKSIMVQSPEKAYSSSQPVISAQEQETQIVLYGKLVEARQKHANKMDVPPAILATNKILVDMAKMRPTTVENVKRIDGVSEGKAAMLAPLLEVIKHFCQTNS
Procedure: Effects of compounds on WRN helicase activity were assessed with the Helicase Assay for WRN Inhibition. This is an ATP-dependent (inclusion of ATP is important and is required for this assay) fluorescence based assay using recombinant WRN and a fluorogenic DNA substrate.
WRN activity was normalized to signal from wells without WRN protein (background, 0% activity) and wells with protein treated only with DMSO (positive control, 10000 activity). For each compound the potency of inhibition (IC50) was determiined using Graphpad Prism.

[2] = WRN Helicase IC50, 30 min preincubation with ATP, 30 min reaction

SMILES	IC50 (WRN C727)	IC50 [1, 2]	also measured
CC(F)(F)c1ncc(C(=O)NC(C=CS(C)(=O)=O)C2CC(F)(F)C2)c(Oc2ccccc2)n1 (single isomer, unassigned) [192/193]	–	–	GI50 (SW480 cells; Homo sapiens, SW480, 120 h): 24 µM; GI50 (HCT 116 cells; Homo sapiens, HCT-116, 120 h): 0.023 µM
C=C(C#N)[C@H](C)NC(=O)c1cnc(C(F)(F)C2CC2)nc1Oc1ccccc1 [275/276, (S)—N-(3-cyanobut-3-en-2-yl)-2-(cyclopropyldifluoromethyl)-4-phenoxypyrimidine-5-carboxamide/(R)—N-(3-cyanobut-3-en-2-yl)-2-(cyclopropyldifluoromethyl)-4-phenoxypyrimidine-5-carboxamide]	–	–	GI50 (SW480 cells; SW480 (MSS), 5-day incubation): 10 µM and 9.4 µM
C=C(C#N)[C@@H](NC(=O)c1cnc(C(C)(F)F)nc1Oc1ccccc1)C1CC1 [278/279, (S)—N-(2-cyano-1-cyclopropylallyl)-2-(1,1-difluoroethyl)-4-phenoxypyrimidine-5-carboxamide/(R)—N-(2-cyano-1-cyclopropylallyl)-2-(1,1-difluoroethyl)-4-phenoxypyrimidine-5-carboxamide]	–	–	GI50 (SW480 cells; SW480 (MSS), 5-day incubation): 11 µM; GI50 (HCT 116 cells; HCT-116 (MSI-H), 5-day incubation): 0.35 µM
CS(=O)(=O)/C=C/CNC(=O)c1cnc(C2CCCC2)nc1Oc1ccccc1 [Example 1, (E)-2-cyclopentyl-N-(3-(methylsulfonyl)allyl)-4-phenoxypyrimidine-5-carboxamide]	–	–	GI50 (HCT 116 cells; Homo sapiens, HCT-116, 120 h): 2.1 µM
C[C@@H](/C=C/S(C)(=O)=O)NC(=O)c1cnc(C(C)(F)F)nc1Oc1ccccc1 [Example 86, (S,E)-2-(1,1-difluoroethyl)-N-(4-(methylsulfonyl)but-3-en-2-yl)-4-phenoxypyrimidine-5-carboxamide]	–	–	GI50 (SW480 cells; Homo sapiens, SW480, 120 h): 41.7 µM; GI50 (HCT 116 cells; Homo sapiens, HCT-116, 120 h): 0.224 µM
C[C@@H](/C=C/S(C)(=O)=O)NC(=O)c1cnc(C2CC2)nc1O[C@H]1C[C@H](Cl)C1 [Example 151, 4-((1r,3S)-3-chlorocyclobutoxy)-2-cyclopropyl-N—((S,E)-4-(methylsulfonyl)but-3-en-2-yl)pyrimidine-5-carboxamide]	> 100 µM	59 µM	–
C[C@@H](/C=C/S(C)(=O)=O)NC(=O)c1cnc(C(C)(C)C)nc1OC1CC(F)(F)C1 [Example 156, (S,E)-2-(tert-butyl)-4-(3,3-difluorocyclobutoxy)-N-(4-(methylsulfonyl)but-3-en-2-yl)pyrimidine-5-carboxamide]	40 µM	15 µM	–
C[C@@H](/C=C/S(C)(=O)=O)NC(=O)c1cnc(C2CC2)c(F)c1Oc1ccccc1 [Example 205, (S,E)-6-cyclopropyl-5-fluoro-N-(4-(methylsulfonyl)but-3-en-2-yl)-4-phenoxynicotinamide]	> 100 µM	20 µM	–
C[C@@H](/C=C/S(C)(=O)=O)NC(=O)c1ncc(C2=CCCC2)nc1Oc1ccccc1 [Example 207, (S,E)-5-(cyclopent-1-en-1-yl)-N-(4-(methylsulfonyl)but-3-en-2-yl)-3-phenoxypyrazine-2-carboxamide]	> 100 µM	52 µM	–
CS(=O)(=O)/C=C/CNC(=O)c1cnc(-c2ccn[nH]2)nc1Oc1ccccc1 [Example 209, (E)-N-(3-(methylsulfonyl)allyl)-4-phenoxy-2-(1H-pyrazol-5-yl)pyrimidine-5-carboxamide]	> 100 µM	18 µM	–
C[C@@H](/C=C/S(C)(=O)=O)NC(=O)c1cnc(C2=CCCOC2)nc1Oc1ccccc1 [Example 211, (S,E)-2-(5,6-dihydro-2H-pyran-3-yl)-N-(4-(methylsulfonyl)but-3-en-2-yl)-4-phenoxypyrimidine-5-carboxamide]	> 100 µM	51 µM	–
C[C@@H](/C=C/S(C)(=O)=O)NC(=O)c1cnc(C2CCCOC2)nc1Oc1ccccc1 (stereo partly drawn) [Example 212, N—((S,E)-4-(methylsulfonyl)but-3-en-2-yl)-4-phenoxy-2-(tetrahydro-2H-pyran-3-yl)pyrimidine-5-carboxamide]	> 100 µM	31 µM	–
C[C@@H](/C=C/S(C)(=O)=O)NC(=O)c1cnc(C2CCOCC2)nc1Oc1ccccc1 [Example 238, (S,E)-N-(4-(methylsulfonyl)but-3-en-2-yl)-4-phenoxy-2-(tetrahydro-2H-pyran-4-yl)pyrimidine-5-carboxamide]	> 100 µM	53 µM	–
C[C@@H](/C=C/S(C)(=O)=O)NC(=O)c1cnc(C2CCCC2)nc1C1CCCCC1 [Example 239, (S,E)-4-cyclohexyl-2-cyclopentyl-N-(4-(methylsulfonyl)but-3-en-2-yl)pyrimidine-5-carboxamide]	> 100 µM	148 µM	–
C[C@@H](/C=C/S(C)(=O)=O)NC(=O)c1cnc(CC2CCCCC2)nc1Oc1ccccc1 [Example 240, (S,E)-2-(cyclohexylmethyl)-N-(4-(methylsulfonyl)but-3-en-2-yl)-4-phenoxypyrimidine-5-carboxamide]	> 100 µM	67 µM	–
C[C@@H](/C=C/S(C)(=O)=O)NC(=O)c1cc2c(nc1Oc1ccccc1)CCC2 [Example 243, (S,E)-N-(4-(methylsulfonyl)but-3-en-2-yl)-2-phenoxy-6,7-dihydro-5H-cyclopenta[b]pyridine-3-carboxamide]	> 100 µM	43 µM	–
CC(=O)Nc1nc(C2CCCC2)nc(Oc2ccccc2)c1C(=O)N[C@@H](C)/C=C/S(C)(=O)=O [Example 256, (S,E)-4-acetamido-2-cyclopentyl-N-(4-(methylsulfonyl)but-3-en-2-yl)-6-phenoxypyrimidine-5-carboxamide]	> 100 µM	42 µM	–

More lines, main results first:

IC50 (WRN C727)	IC50 [1, 2]	SMILES	also measured
> 100 µM	43 µM	C[C@@H](/C=C/S(C)(=O)=O)NC(=O)c1cnc(C2CC2)nc1OCC1CC1 [Example 150, (S,E)-2-cyclopropyl-4-(cyclopropylmethoxy)-N-(4-(methylsulfonyl)but-3-en-2-yl)pyrimidine-5-carboxamide]	–
20 µM	15 µM	C[C@@H](/C=C/S(C)(=O)=O)NC(=O)c1cnc(C(C)(C)C)nc1OC1CCC(F)(F)CC1 [Example 155, (S,E)-2-(tert-butyl)-4-((4,4-difluorocyclohexyl)oxy)-N-(4-(methylsulfonyl)but-3-en-2-yl)pyrimidine-5-carboxamide]	–
> 100 µM	154 µM	C[C@@H](/C=C/S(C)(=O)=O)NC(=O)c1cnc(C(C)(C)C)nc1OC1(C#N)CCCC1 [Example 161, (S,E)-2-(tert-butyl)-4-((1-cyanocyclopentyl)oxy)-N-(4-(methylsulfonyl)but-3-en-2-yl)pyrimidine-5-carboxamide]	–
> 100 µM	128 µM	Cc1nc(C2CCCC2)nc(Oc2ccccc2)c1C(=O)N[C@@H](C)/C=C/S(C)(=O)=O [Example 162, (S,E)-2-cyclopentyl-4-methyl-N-(4-(methylsulfonyl)but-3-en-2-yl)-6-phenoxypyrimidine-5-carboxamide]	–
> 100 µM	137 µM	C[C@@H](/C=C/S(C)(=O)=O)NC(=O)c1cnc(N2CC3(CCC3)C2)nc1Oc1ccccc1 [Example 170, (S,E)-N-(4-(methylsulfonyl)but-3-en-2-yl)-4-phenoxy-2-(2-azaspiro[3.3]heptan-2-yl)pyrimidine-5-carboxamide]	–
> 100 µM	48 µM	C[C@@H](/C=C/S(C)(=O)=O)NC(=O)c1cnc(N2CCC(F)(F)C2)nc1Oc1ccccc1 [Example 173, (S,E)-2-(3,3-difluoropyrrolidin-1-yl)-N-(4-(methylsulfonyl)but-3-en-2-yl)-4-phenoxypyrimidine-5-carboxamide]	–
64.4 µM	2.9 µM	CS(=O)(=O)/C=C/[C@@H](NC(=O)c1cnc(N2CC(F)(F)C2)nc1Oc1ccccc1)C1CC1 [Example 183, (S,E)-N-(1-cyclopropyl-3-(methylsulfonyl)allyl)-2-(3,3-difluoroazetidin-1-yl)-4-phenoxypyrimidine-5-carboxamide]	–
> 100 µM	52 µM	CN(C/C=C/S(C)(=O)=O)C(=O)c1cnc(C2CCCC2)nc1Oc1ccccc1 [Example 187, (E)-2-cyclopentyl-N-methyl-N-(3-(methylsulfonyl)allyl)-4-phenoxypyrimidine-5-carboxamide]	–
0.5 µM	17 µM	CS(=O)(=O)/C=C/[C@@H](NC(=O)c1cc2c(nc1Oc1ccccc1)C(F)(F)CC2)C1CC1 [Example 237, (S,E)-N-(1-cyclopropyl-3-(methylsulfonyl)allyl)-7,7-difluoro-2-phenoxy-6,7-dihydro-5H-cyclopenta[b]pyridine-3-carboxamide]	–
0.49 µM	20 µM	COc1ncc(C(=O)N[C@H](/C=C/S(C)(=O)=O)C2CC2)c(Oc2ccccc2)n1 [Example 244, (S,E)-N-(1-cyclopropyl-3-(methylsulfonyl)allyl)-2-methoxy-4-phenoxypyrimidine-5-carboxamide]	–
0.12 µM	–	C[C@@H](/C=C/S(C)(=O)=O)NC(=O)c1cnc(C2CC2)c2c1OC1(CCCC1)C2 [Example 259, (S,E)-4′-cyclopropyl-N-(4-(methylsulfonyl)but-3-en-2-yl)-3′H-spiro[cyclopentane-1,2′-furo[3,2-c]pyridine]-7′-carboxamide]	IC50 [1]: 7 µM
41.8 µM	51 µM	CC(C)Oc1cc(C2CCCC2)ccc1C(=O)NC/C=C/S(C)(=O)=O [Example 281, (E)-4-cyclopentyl-2-isopropoxy-N-(3-(methylsulfonyl)allyl)benzamide]	–
